Reference: ChEMBL document CHEMBL3792342, “Synthesis and biological evaluation of 2-arylimino-3-pyridin-thiazolineone derivatives as antibacterial agents” (Bioorg Med Chem Lett, 2016)
≈ marks a conversion by molar mass, not a printed value.

Columns and labels:
Escherichia coli = experiment: Antibacterial activity against Escherichia coli ATCC 25922 by broth micro-dilution method; assay type: functional
[1] = Cytotoxicity against African green monkey Vero cells; assay type: cell-based; settings: chlorocebus sabaeus
[2] = tested on: Staphylococcus epidermidis; experiment: Antibacterial activity against Staphylococcus epidermidis ATCC 35984 by broth micro-dilution method; assay type: functional; settings: RP62A
[3] = Hemolytic activity in human erythrocytes at 200 uM; assay type: ADME, cell-based; settings: erythrocyte
[4] = tested on: Staphylococcus epidermidis; experiment: Bactericidal activity against Staphylococcus epidermidis ATCC 35984; assay type: functional; settings: RP62A
Staphylococcus aureus = experiment: Antibacterial activity against methicillin-resistant Staphylococcus aureus 8282 by broth micro-dilution method; assay type: functional

For CCc1ccccc1/N=C1\S/C(=C\c2ccc(OCC(=O)O)c(OC)c2)C(=O)N1c1ccccc1CC, the MIC (Escherichia coli) was > 200 µM, the CC50 [1] was 50 µM and the MIC [2] was 25 µM (≈ 12.9 µg/mL). The Activity [3] was “Non-toxic”, the MBC [4] was 100 µM (≈ 51.7 µg/mL) and the MIC (Staphylococcus aureus) was 25 µM (≈ 12.9 µg/mL).
With O=C(O)c1cccc(-c2ccc(/C=C3\S/C(=N\c4ccc(F)cc4)N(c4ccc(F)cc4)C3=O)s2)c1 the MIC (Escherichia coli) was > 200 µM, the CC50 [1] was > 200 µM and the MIC [2] was 6.25 µM (≈ 3.24 µg/mL). For the same molecule, the Activity [3] was “Non-toxic”, the MBC [4] was 100 µM (≈ 51.9 µg/mL) and the MIC (Staphylococcus aureus) was 6.25 µM (≈ 3.24 µg/mL).
For O=C(O)c1cccc(-c2ccc(/C=C3\S/C(=N\c4ccc(Cl)cc4)N(c4ccc(Cl)cc4)C3=O)s2)c1, the MIC (Escherichia coli) was > 200 µM, the CC50 [1] was > 200 µM and the MIC [2] was 12.5 µM (≈ 6.89 µg/mL). For the same molecule, the Activity [3] was “Non-toxic”, the MBC [4] was > 200 µM and the MIC (Staphylococcus aureus) was 25 µM (≈ 13.8 µg/mL).
With O=C(O)c1cccc(-c2ccc(/C=C3\S/C(=N\c4ccc(Cl)cc4)N(c4ncccc4F)C3=O)o2)c1 the MIC (Escherichia coli) was > 200 µM, the CC50 [1] was > 200 µM and the MIC [2] was 12.5 µM (≈ 6.5 µg/mL). The Activity [3] was “Non-toxic”, the MBC [4] was > 200 µM and the MIC (Staphylococcus aureus) was 12.5 µM (≈ 6.5 µg/mL).
With O=C(O)c1cccc(-c2ccc(/C=C3\S/C(=N\c4ccc(Cl)cc4)N(c4ccccn4)C3=O)o2)c1 the MIC (Escherichia coli) was > 200 µM, the CC50 [1] was > 200 µM and the MIC [2] was 6.25 µM (≈ 3.14 µg/mL). For the same molecule, the Activity [3] was “Non-toxic”, the MBC [4] was 50 µM (≈ 25.1 µg/mL) and the MIC (Staphylococcus aureus) was 6.25 µM (≈ 3.14 µg/mL).
For O=C(O)c1cccc(-c2ccc(/C=C3\S/C(=N\c4ccc(F)cc4)N(c4ccccn4)C3=O)o2)c1, the MIC (Escherichia coli) was > 200 µM, the CC50 [1] was > 200 µM and the MIC [2] was 12.5 µM (≈ 6.07 µg/mL). The Activity [3] was “Non-toxic”, the MBC [4] was > 200 µM and the MIC (Staphylococcus aureus) was 12.5 µM (≈ 6.07 µg/mL).
For O=C(O)c1cccc(-c2ccc(/C=C3\S/C(=N\c4ccccc4)N(c4ccc(Cl)cc4)C3=O)o2)c1, the MIC (Escherichia coli) was > 200 µM, the CC50 [1] was > 200 µM and the MIC [2] was 6.25 µM (≈ 3.13 µg/mL). The Activity [3] was “Non-toxic”, the MBC [4] was 50 µM (≈ 25 µg/mL) and the MIC (Staphylococcus aureus) was 6.25 µM (≈ 3.13 µg/mL).
With O=C(O)c1cccc(-c2ccc(/C=C3\S/C(=N\c4ccccc4)N(c4cccc(F)n4)C3=O)o2)c1 the MIC (Escherichia coli) was > 200 µM, the CC50 [1] was > 200 µM and the MIC [2] was 6.25 µM (≈ 3.03 µg/mL). The Activity [3] was “Non-toxic”, the MBC [4] was 100 µM (≈ 48.5 µg/mL) and the MIC (Staphylococcus aureus) was 6.25 µM (≈ 3.03 µg/mL).
For O=C(O)c1cccc(-c2ccc(/C=C3\S/C(=N\c4ccccc4)N(c4ccc(F)cn4)C3=O)o2)c1, the MIC (Escherichia coli) was > 200 µM, the CC50 [1] was > 200 µM and the MIC [2] was 12.5 µM (≈ 6.07 µg/mL). For the same molecule, the Activity [3] was “Non-toxic”, the MBC [4] was > 200 µM and the MIC (Staphylococcus aureus) was 12.5 µM (≈ 6.07 µg/mL).
With O=C(O)c1cccc(-c2ccc(/C=C3\S/C(=N\c4ccccc4)N(c4ccc(F)cc4)C3=O)s2)c1 the MIC (Escherichia coli) was > 200 µM, the CC50 [1] was > 200 µM and the MIC [2] was 6.25 µM (≈ 3.13 µg/mL). The Activity [3] was “Non-toxic”, the MBC [4] was 25 µM (≈ 12.5 µg/mL) and the MIC (Staphylococcus aureus) was 12.5 µM (≈ 6.26 µg/mL).
For O=C(O)c1cccc(-c2ccc(/C=C3\S/C(=N\c4ccccc4)N(c4ccc(F)cn4)C3=O)s2)c1, the MIC (Escherichia coli) was > 200 µM, the CC50 [1] was > 200 µM and the MIC [2] was 3.13 µM (≈ 1.57 µg/mL). The Activity [3] was “Non-toxic”, the MBC [4] was 50 µM (≈ 25.1 µg/mL) and the MIC (Staphylococcus aureus) was 3.13 µM (≈ 1.57 µg/mL).
For O=C(O)c1cccc(-c2ccc(/C=C3\S/C(=N\c4ccc(Cl)cc4)N(c4ccccc4)C3=O)o2)c1, the MIC (Escherichia coli) was > 200 µM, the CC50 [1] was > 200 µM and the MIC [2] was 6.25 µM (≈ 3.13 µg/mL). For the same molecule, the Activity [3] was “Non-toxic”, the MBC [4] was 100 µM (≈ 50.1 µg/mL) and the MIC (Staphylococcus aureus) was 6.25 µM (≈ 3.13 µg/mL).
With O=C(O)c1cccc(-c2ccc(/C=C3\S/C(=N\c4ccccc4)N(c4cccnc4Cl)C3=O)o2)c1 the MIC (Escherichia coli) was > 200 µM, the CC50 [1] was > 200 µM and the MIC [2] was 3.13 µM (≈ 1.57 µg/mL). For the same molecule, the Activity [3] was “Non-toxic”, the MBC [4] was 50 µM (≈ 25.1 µg/mL) and the MIC (Staphylococcus aureus) was 6.25 µM (≈ 3.14 µg/mL).
In the case of O=C(O)c1cccc(-c2ccc(/C=C3\S/C(=N\c4ccc(F)cc4)N(c4ccc(F)cc4)C3=O)o2)c1, the MIC (Escherichia coli) is reported as > 200 µM, the CC50 [1] is reported as > 200 µM and the MIC [2] is reported as 100 µM (≈ 50.2 µg/mL). For the same molecule, the Activity [3] was “Non-toxic”, the MBC [4] was > 200 µM and the MIC (Staphylococcus aureus) was 100 µM (≈ 50.2 µg/mL).
In the case of O=C(O)c1cccc(-c2ccc(/C=C3\S/C(=N\c4ccccc4)N(c4ncccc4F)C3=O)o2)c1, the MIC (Escherichia coli) is reported as > 200 µM, the CC50 [1] is reported as > 200 µM and the MIC [2] is reported as 12.5 µM (≈ 6.07 µg/mL). The Activity [3] was “Non-toxic”, the MBC [4] was > 200 µM and the MIC (Staphylococcus aureus) was 12.5 µM (≈ 6.07 µg/mL).
In the case of O=C(O)c1cccc(-c2ccc(/C=C3\S/C(=N\c4ccc(Cl)cc4)N(c4ccc(Cl)cc4)C3=O)o2)c1, the MIC (Escherichia coli) is reported as > 200 µM, the CC50 [1] is reported as > 200 µM and the MIC [2] is reported as 25 µM (≈ 13.4 µg/mL). For the same molecule, the Activity [3] was “Non-toxic”, the MBC [4] was > 200 µM and the MIC (Staphylococcus aureus) was 25 µM (≈ 13.4 µg/mL).
With O=C(O)c1cccc(-c2ccc(/C=C3\S/C(=N\c4ccccc4)N(c4cccnc4[N+](=O)[O-])C3=O)s2)c1 the MIC (Escherichia coli) was > 200 µM, the CC50 [1] was > 200 µM and the MIC [2] was 1.56 µM (≈ 0.825 µg/mL). For the same molecule, the Activity [3] was “Non-toxic”, the MBC [4] was 12.6 µM (≈ 6.66 µg/mL) and the MIC (Staphylococcus aureus) was 3.13 µM (≈ 1.65 µg/mL).
With O=C(O)c1cccc(-c2ccc(/C=C3\S/C(=N\c4ccccc4)N(c4ccc(Cl)cc4)C3=O)s2)c1 the MIC (Escherichia coli) was > 200 µM, the CC50 [1] was > 200 µM and the MIC [2] was 1.56 µM (≈ 0.807 µg/mL). The Activity [3] was “Non-toxic”, the MBC [4] was 25 µM (≈ 12.9 µg/mL) and the MIC (Staphylococcus aureus) was 3.13 µM (≈ 1.62 µg/mL).
With O=C(O)c1cccc(-c2ccc(/C=C3\S/C(=N\c4ccccc4)N(c4cccnc4Cl)C3=O)s2)c1 the MIC (Escherichia coli) was > 200 µM, the CC50 [1] was > 200 µM and the MIC [2] was 1.56 µM (≈ 0.808 µg/mL). The Activity [3] was “Non-toxic”, the MBC [4] was 6.3 µM (≈ 3.26 µg/mL) and the MIC (Staphylococcus aureus) was 3.13 µM (≈ 1.62 µg/mL).
For Cc1ncccc1N1C(=O)/C(=C/c2ccc(-c3cccc(C(=O)O)c3)s2)S/C1=N\c1ccccc1, the MIC (Escherichia coli) was > 200 µM, the CC50 [1] was > 200 µM and the MIC [2] was 12.5 µM (≈ 6.22 µg/mL). For the same molecule, the Activity [3] was “Non-toxic”, the MBC [4] was 100 µM (≈ 49.8 µg/mL) and the MIC (Staphylococcus aureus) was 12.5 µM (≈ 6.22 µg/mL).
For O=C(O)c1cccc(-c2ccc(/C=C3\S/C(=N\c4ccccc4)N(c4ccc(F)cc4)C3=O)o2)c1, the MIC (Escherichia coli) was > 200 µM, the CC50 [1] was > 200 µM and the MIC [2] was 25 µM (≈ 12.1 µg/mL). For the same molecule, the Activity [3] was “Non-toxic”, the MBC [4] was 50 µM (≈ 24.2 µg/mL) and the MIC (Staphylococcus aureus) was 25 µM (≈ 12.1 µg/mL).
With COc1cccc(OC)c1C(=O)N[C@@H]1C(=O)N2[C@@H]1SC(C)(C)[C@@H]2C(=O)O [METHICILLIN] the MIC (Escherichia coli) was > 200 µM, the CC50 [1] was > 200 µM and the MIC [2] was 3.13 µM (≈ 1.19 µg/mL). The Activity [3] was “Non-toxic”, the MBC [4] was > 200 µM and the MIC (Staphylococcus aureus) was 100 µM (≈ 38 µg/mL).
